According to patent publication US20070155736A1, “FLUORINATED PHNO AND ANALOGUES THEREOF” (Clara Inc., priority 2005, published 2007):
Where a name gives a salt, the structure may show the parent alone.

Experiments:
rat cloned D3 receptor = molecular target: T1, rat cloned D3 receptor (Rattus norvegicus, UniProt P19020); assay: Binding to rat cloned D3 receptor using 1.6 nM [3H]-raclopride
T1 construct: expressed in transfected cells
Text: (§1) It is herein submitted that the short-term use of tracer doses of a compound of the invention, wherein R^1 is C1-6alkyl in which one hydrogen atom on the alkyl chain in replaced with radioactive fluoro, in radioimaging procedures will be of diagnostic and therapeutic importance in dopamine-related disorders.

[1] = molecular target: T2, high-affinity state of dopamine D2 receptors (Rattus norvegicus, UniProt P61169); assay: Biological potency on the high-affinity state of dopamine D2 receptors in rat homogenized striatal tissue; type: binding; conditions: [3H]-domperidone
T2 construct: from tissue; host or cells: rat striatum, homogenized
T2 sequence (P61169 whole entry): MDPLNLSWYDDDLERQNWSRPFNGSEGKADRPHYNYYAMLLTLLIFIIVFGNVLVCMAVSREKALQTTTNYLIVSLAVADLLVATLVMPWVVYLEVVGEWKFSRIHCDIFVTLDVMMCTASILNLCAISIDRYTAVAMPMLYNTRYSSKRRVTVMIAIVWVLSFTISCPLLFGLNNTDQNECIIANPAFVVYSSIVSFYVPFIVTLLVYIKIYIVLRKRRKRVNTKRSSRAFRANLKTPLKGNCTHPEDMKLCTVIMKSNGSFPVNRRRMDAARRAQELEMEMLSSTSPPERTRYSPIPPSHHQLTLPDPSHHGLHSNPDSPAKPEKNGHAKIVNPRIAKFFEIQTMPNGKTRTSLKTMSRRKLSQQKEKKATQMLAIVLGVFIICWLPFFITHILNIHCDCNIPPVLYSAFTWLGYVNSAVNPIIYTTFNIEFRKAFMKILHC
Text: as §1

[2] = in vivo; cited from earlier work
D2^High receptors = D2^High receptors (Homo sapiens, UniProt P14416); conditions: human volunteer, PET
Chain of D2^High receptors (P14416 whole entry): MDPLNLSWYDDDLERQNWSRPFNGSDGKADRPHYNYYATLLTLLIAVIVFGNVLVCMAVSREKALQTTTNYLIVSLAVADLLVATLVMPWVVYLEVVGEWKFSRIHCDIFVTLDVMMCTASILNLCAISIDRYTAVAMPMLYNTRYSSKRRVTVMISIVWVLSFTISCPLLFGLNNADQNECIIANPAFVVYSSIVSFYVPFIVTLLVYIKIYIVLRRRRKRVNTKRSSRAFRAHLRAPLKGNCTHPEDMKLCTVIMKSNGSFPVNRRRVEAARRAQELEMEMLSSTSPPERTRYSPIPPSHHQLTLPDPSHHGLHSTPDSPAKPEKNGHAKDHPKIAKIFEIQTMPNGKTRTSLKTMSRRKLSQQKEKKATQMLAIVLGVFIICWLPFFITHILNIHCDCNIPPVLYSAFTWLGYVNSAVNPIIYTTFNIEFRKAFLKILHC
Procedure: After a brief transmission scan for attenuation correction of the emission scans, emission scans are obtained every minute for the first 15 min, and then every 5 min until the end of the study at 75 min. The PET scanning is conducted by using a dedicated brain scanner, GEMS PC2048-15B PET camera (General Electric Medical Systems) that produces fifteen 6.5 mm-thick slices with a resolution of 5-6 mm. The volunteer is scanned lying down and the head fixed by using a thermoplastic face mask. For accurate anatomical position of the various brain regions, each volunteer receives an MRI (magnetic resonance imaging) scan. The regions of interest are transferred to the PET images by using Alice™ 3.1 software.
The regions of interest include the head of the caudate nucleus. […] Several hours after the initial injection of (+)-[^18F]-PHNO, a second injection of (+)-[^18F]-PHNO is given intravenously at the same time as a very low dose of non-radioactive (+)PHNO, (+)-F-PHNO or a very low dose of apomorphine. […] The density of the D2^High sites in the caudate nucleus that are labeled by (+)-[^18F]-PHNO is calculated, knowing the specific activity of the tracer injected and the amount of radioactivity detected by the positron imaging camera.

T1 sequence (P19020 whole entry): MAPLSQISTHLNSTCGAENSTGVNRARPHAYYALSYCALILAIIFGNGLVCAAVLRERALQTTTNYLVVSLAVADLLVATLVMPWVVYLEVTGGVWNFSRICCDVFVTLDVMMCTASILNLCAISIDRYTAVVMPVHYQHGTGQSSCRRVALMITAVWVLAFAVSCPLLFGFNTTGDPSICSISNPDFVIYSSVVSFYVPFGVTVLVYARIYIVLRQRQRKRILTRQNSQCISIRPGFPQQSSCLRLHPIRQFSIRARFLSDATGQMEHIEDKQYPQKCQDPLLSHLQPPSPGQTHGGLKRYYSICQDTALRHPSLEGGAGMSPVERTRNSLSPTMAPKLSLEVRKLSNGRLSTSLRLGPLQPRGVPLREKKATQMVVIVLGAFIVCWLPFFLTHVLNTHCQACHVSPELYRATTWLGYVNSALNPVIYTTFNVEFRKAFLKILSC

Structure (SMILES)	Kd (rat cloned D3 receptor) [nM]	Kd [1] [nM]	other results
Oc1ccc2c(c1)[C@H]1OCCN(CCCF)[C@@H]1CC2 (as salt: hydrochloride) [(+)-F-PHNO, (4aR,10bR)-4-(3-Fluoropropyl)-3,4,4a,5,6,10b-hexahydro-2H-naphtho[1,2-b][1,4]oxazin-9-ol Hydrochloride]	–	–	melting point: 253 to 255 °C
CCCN1CCO[C@@H]2c3cc(O)ccc3CC[C@H]21.Cl [(+)PHNO, (+)-(4aR,10bR)-3,4,4a,5,6,10b-hexahydro-4-propyl-2H-naphth[1,2-b][1,4]oxazin-9-ol HCl]	–	–	effect in Parkinson's disease [2]: effective in alleviating Parkinson's disease
Oc1ccc2c(c1)[C@H]1OCCN(CCC[18F])[C@@H]1CC2 [(+)-[^18F]-PHNO, [^18F]-(4aR,10bR)-4-(3-fluoropropyl)-3,4,4a,5,6,10b-hexahydro-2H-naphtho[1,2-b][1,4]oxazin-9-ol]	–	–	peak emission in the caudate nucleus (D2^High receptors; at 10 minutes after i.v. injection): about 0.22 % of the injected dose per kg; time of peak emission in the caudate nucleus after intravenous injection (D2^High receptors; bolus plus infusion i.v.): 10 min
Oc1ccc2c(c1)[C@H]1OCCN(CCF)[C@@H]1CC2 [(+)-F-EHNO, (4aR,10bR)-4-(2-Fluoroethyl)-3,4,4a,5,6,10b-hexahydro-2H-naphtho[1,2-b][1,4]oxazin-9-ol Hydrochloride]	1.7	1.7 ± 0.3	–
Oc1ccc2c(c1)[C@H]1OCCN(CCCF)[C@@H]1CC2 [(+)-F-PHNO, (4aR,10bR)-4-(3-Fluoropropyl)-3,4,4a,5,6,10b-hexahydro-2H-naphtho[1,2-b][1,4]oxazin-9-ol Hydrochloride]	0.38	0.46 ± 0.06	–

More lines, main results first:

Kd (rat cloned D3 receptor) [nM]	Kd [1] [nM]	Structure (SMILES)	other results
34	20 ± 8.7	Oc1ccc2c(c1)[C@H]1OCCN(CCCCF)[C@@H]1CC2 [(+)-F-But-HNO, (4aR,10bR)-4-(4-Fluorobutyl)-3,4,4a,5,6,10b-hexahydro-2H-naphtho[1,2-b][1,4]oxazin-9-ol Hydrochloride]	–
45	52 ± 27	Oc1ccc2c(c1)[C@H]1OCCN(CCCCCCF)[C@@H]1CC2 [(+)-F-Hex-HNO, (4aR,10bR)-4-(6-Fluorohexyl)-3,4,4a,5,6,10b-hexahydro-2H-naphtho[1,2-b][1,4]oxazin-9-ol Hydrochloride]	–
54	25 ± 4	Oc1ccc2c(c1)[C@H]1OCCN(CCCCCF)[C@@H]1CC2 [(+)-F-Pent-HNO, (4aR,10bR)-4-(5-Fluoropentyl)-3,4,4a,5,6,10b-hexahydro-2H-naphtho[1,2-b][1,4]oxazin-9-ol Hydrochloride]	–
